Experimental data from US20250195484A1, “CEREBLON LIGANDS AND USES THEREOF” (priority 2022, published 2025).

Experiments:
androgen receptor (AR) = molecular target: T1, androgen receptor (AR) (Homo sapiens, UniProt P10275); assay: Androgen receptor degradation, western blot; assay type: cell-based; conditions: AR degradation potency, cell line not stated
T1 construct: endogenous in cells
T1 sequence (P10275 1-920): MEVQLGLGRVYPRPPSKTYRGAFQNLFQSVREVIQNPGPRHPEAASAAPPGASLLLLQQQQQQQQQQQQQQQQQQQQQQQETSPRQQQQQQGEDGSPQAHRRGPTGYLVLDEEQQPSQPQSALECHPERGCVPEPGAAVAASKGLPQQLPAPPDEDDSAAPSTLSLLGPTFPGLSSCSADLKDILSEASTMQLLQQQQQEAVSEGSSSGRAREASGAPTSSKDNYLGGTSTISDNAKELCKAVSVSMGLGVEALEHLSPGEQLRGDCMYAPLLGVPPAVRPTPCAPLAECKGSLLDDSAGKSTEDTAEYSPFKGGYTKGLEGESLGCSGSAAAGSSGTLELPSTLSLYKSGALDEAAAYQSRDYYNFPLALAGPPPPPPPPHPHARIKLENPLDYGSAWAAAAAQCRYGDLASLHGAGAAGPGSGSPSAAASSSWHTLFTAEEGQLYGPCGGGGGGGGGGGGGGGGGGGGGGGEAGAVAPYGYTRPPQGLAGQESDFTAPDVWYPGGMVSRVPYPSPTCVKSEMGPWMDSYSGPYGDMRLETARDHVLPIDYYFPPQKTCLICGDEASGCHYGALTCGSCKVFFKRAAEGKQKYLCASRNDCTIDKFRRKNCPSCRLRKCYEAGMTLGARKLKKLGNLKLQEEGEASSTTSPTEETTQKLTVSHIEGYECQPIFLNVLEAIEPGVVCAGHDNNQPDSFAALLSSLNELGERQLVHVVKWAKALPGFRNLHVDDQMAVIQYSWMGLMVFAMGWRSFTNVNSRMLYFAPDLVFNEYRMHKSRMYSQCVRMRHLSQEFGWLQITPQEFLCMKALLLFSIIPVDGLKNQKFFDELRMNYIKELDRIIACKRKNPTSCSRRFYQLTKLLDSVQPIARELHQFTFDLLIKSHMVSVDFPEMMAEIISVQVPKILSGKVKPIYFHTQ
Protocol: Western blot analysis was performed essentially as described previously. The cells treated with indicated compounds were lysed in Radioimmunoprecipitation Assay Protein Lysis and Extraction Buffer (25 mmol/L Tris.HCl, pH 7.6, 150 mmol/L NaCl, 1% Nonidet P-40, 1% sodium deoxycholate, and 0.1% sodium dodecyl sulfate) containing proteinase inhibitor cocktail (Roche Diagnostics, Mannheim, Germany). Equal amounts of total protein were electrophoresed through 10% SDS-polyacrylamide gels after determination of protein concentration by BCA assay (Fisher Scientific, Pittsburgh, PA). The separated protein bands were transferred onto PVDF membranes (GE Healthcare Life Sciences, Marlborough, MA) and blotted against different antibodies, as indicated. The blots were scanned, and the band intensities were quantified using GelQuant.NET software provided by biochemlabsolutions.com. The relative mean intensity of target proteins was expressed after normalization to the intensity of glyceraldehyde-3-phosphate dehydrogenase bands.

BRD9 = molecular target: T2, BRD9 (Homo sapiens, UniProt Q9H8M2); assay: BRD9 HiBiT assay for protein degradation (HEK293 CRISPR knock-in); assay type: cell-based; conditions: for Dmax: HEK293, read-out: BRD9 HEK293 HiBit Dmax; for DC50: HEK293 CRISPR knock-in cells, 6 hrs
T2 construct: endogenous in cells; host or cells: HEK293 (CRISPR HiBiT knock-in)
Protocol: HiBiT Assay for protein degradation:
The HiBit assay was performed using engineered HEK293 CRISPR knock-in cell utilizing the Nano-Glo HiBiT Lytic Detection System from Promega, Cat #N3040. Compounds were transferred, 25 nL DMSO or test compounds (final DMSO @ 0.1%) to intermediate plates (Corning3570) using ECHO550. Cells were seeded onto compounds at 2000 cells/25 μL/well and incubated for 6 hrs in tissue culture incubator at 37° C. and 5% CO2. The LgBiT Protein was diluted at 1:100 and the Nano-Glo® HiBiT Lytic Substrate 1:50 into an appropriate volume of room temperature using the Nano-Glo® HiBiT Lytic Buffer. At end of compound incubation time 15 ul of the detection reagent was added to each well (without LgBiT for negative control wells) using the Thermo Scientific multidrop combi. The plate was shaken for 10 mins at RT using Combi. After brief centrifugation (2000 rpm 1 mins), plate was read on Envision (Ultrasensitive luminescence model).

[1] = molecular target: GST-tagged wild-type human CRBN protein (Homo sapiens, UniProt Q96SW2); assay: biochemical
Protocol: The binding to cereblon (CRBN) was determined using the Cereblon Binding Kit (Cisbio, #64BDCRBNPEG) following the manufacturer's instruction. Briefly, serially diluted compounds were incubated with GST-tagged wild-type human CRBN protein, XL665-labelled Thalidomide and Europium Cryptate labelled GST antibody at room temperature for about 3 hours.

STAT3 = molecular target: T3, STAT3 (Homo sapiens, UniProt P40763); assay: STAT3 degradation HiBiT assay (STAT3-HIBIT KI HeLa); assay type: cell-based; conditions: STAT3-HIBIT KI HeLa cells, 24 hours
T3 construct: host or cells: HeLa (STAT3-HiBiT CRISPR knock-in clone)
Protocol: STAT3-HIBIT KI HeLa cell line was purchased from Promega. This cell line is a clone created by using CRISPR-Cas9 to fuse HiBIT to the 3′ end of STAT3 in HeLa cells. DMEM medium and FBS were purchased from Gibco/Thermo Fisher Scientific. STAT3 degradation was determined based on quantification of luminescent signal using Nano-Glo HiBIT Lytic Detection System. In a typical procedure, cells seeded at 20000 cells per well in 96-well white plates (Corning) were incubated with serially diluted compounds for 24 hours at 37° C. with 5% CO2. At the end of treatment, Nano-Glo HiBIT Lytic Detection reagents was added to the wells and luminescence was acquired on TECAN PSARK plate reader. Untreated cells were used as control. Data points were fit with a four-parameter equation to generate a concentration-response curve. IC50 values were calculated using a nonlinear regression analysis of the mean±SD from triplicate.

MOLM-16 = assay: Cell viability assay (CellTiter-Glo 2.0), MOLM-16; assay type: cell-based; conditions: MOLM16; MOLM-16 cells
SU-DHL-1 = assay: Cell viability assay (CellTiter-Glo 2.0), SU-DHL-1; assay type: cell-based; conditions: Homo sapiens, 96 h; SU-DHL-1 cells, 4 days
Protocol: SU-DHL-1 and SUP-M2 cell viability was determined by CellTiter-Glo 2.0 Cell Viability Assay (Promega). […] In a typical procedure, cells seeded at 1000 cells per well in 384-well white plates (Corning) were incubated with serially diluted compounds for 4 days at 37° C. with 5% CO2. At the end of treatment, CellTiter-Glo 2.0 was added to the wells and luminescence was acquired on TECAN PSARK plate reader. Untreated cells were used as control. Data points were fit with a four-parameter equation to generate a concentration-response curve. IC50 values were calculated using a nonlinear regression analysis of the mean±SD from triplicate.

T2 sequence (Q9H8M2 whole entry): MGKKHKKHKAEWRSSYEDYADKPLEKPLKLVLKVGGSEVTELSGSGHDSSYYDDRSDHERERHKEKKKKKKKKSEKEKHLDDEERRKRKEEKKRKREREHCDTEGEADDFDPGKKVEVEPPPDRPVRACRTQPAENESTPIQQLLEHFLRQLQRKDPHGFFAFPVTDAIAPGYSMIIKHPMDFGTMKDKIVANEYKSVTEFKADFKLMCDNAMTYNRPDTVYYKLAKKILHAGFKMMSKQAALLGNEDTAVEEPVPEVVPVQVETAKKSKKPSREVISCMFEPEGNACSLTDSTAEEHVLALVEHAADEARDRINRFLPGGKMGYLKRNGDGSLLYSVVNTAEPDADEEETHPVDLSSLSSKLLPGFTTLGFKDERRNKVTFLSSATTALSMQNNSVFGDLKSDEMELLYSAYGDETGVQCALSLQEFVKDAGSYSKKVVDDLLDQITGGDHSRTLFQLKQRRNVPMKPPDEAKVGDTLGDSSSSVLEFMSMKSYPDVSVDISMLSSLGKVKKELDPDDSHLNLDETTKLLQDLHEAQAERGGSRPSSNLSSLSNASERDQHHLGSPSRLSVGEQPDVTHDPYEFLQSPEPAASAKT
T3 sequence (P40763 whole entry): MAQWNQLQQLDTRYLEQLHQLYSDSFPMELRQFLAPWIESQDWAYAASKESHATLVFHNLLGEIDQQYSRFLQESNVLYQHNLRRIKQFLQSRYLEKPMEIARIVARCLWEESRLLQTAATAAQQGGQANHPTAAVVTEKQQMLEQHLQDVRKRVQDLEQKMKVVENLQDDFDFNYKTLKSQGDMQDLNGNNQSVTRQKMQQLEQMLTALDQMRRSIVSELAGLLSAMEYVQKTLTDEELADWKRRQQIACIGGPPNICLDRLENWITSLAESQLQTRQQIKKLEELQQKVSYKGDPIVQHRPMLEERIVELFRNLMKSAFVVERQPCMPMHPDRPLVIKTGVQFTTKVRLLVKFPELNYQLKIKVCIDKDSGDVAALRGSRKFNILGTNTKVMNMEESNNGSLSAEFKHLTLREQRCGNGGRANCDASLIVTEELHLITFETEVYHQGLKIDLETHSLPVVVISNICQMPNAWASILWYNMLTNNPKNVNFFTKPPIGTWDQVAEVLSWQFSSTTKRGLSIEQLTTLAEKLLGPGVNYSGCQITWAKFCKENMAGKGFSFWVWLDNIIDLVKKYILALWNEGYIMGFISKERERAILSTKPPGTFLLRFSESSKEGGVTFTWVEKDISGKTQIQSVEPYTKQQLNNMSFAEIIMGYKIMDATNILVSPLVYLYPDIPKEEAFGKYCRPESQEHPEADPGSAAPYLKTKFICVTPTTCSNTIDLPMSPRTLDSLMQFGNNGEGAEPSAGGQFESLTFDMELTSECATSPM
Chain of GST-tagged wild-type human CRBN protein (Q96SW2 whole entry): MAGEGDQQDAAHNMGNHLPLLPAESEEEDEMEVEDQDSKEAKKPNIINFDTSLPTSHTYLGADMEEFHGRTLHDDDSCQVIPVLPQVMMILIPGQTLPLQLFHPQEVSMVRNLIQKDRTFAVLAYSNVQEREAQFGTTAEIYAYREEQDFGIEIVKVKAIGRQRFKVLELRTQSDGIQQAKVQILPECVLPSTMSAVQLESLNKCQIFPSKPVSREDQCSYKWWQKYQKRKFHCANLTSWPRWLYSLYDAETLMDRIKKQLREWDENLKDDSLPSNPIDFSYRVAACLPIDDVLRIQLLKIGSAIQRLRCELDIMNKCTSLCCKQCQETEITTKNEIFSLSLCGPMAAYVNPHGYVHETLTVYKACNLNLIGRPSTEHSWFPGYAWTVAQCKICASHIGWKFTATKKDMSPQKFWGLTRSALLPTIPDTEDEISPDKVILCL

SMILES: C[C@H]1CC2(CCN(c3ccc(C(=O)N4CCC(CN5CCC6(CC5)COc5c6ccc6c5CN([C@H]5CCC(=O)NC5=O)C6=O)CC4)cc3)CC2)CN1c1ccc(C#N)c(Cl)c1 [ARD-1, 2-chloro-4-((S)-8-(4-(4-((7-((S)-2,6-dioxopiperidin-3-yl)-6-oxo-7,8-dihydro-2H,6H-spiro[furo[2,3-e]isoindole-3,4′-piperidin]-1′-yl)methyl)piperidine-1-carbonyl)phenyl)-3-methyl-2,8-diazaspiro[4.5]decan-2-yl)benzonitrile]
- Dmax (androgen receptor (AR)): > 75%

SMILES: C[C@@H]1N(c2ccc(C#N)c(Cl)c2)CCC12CCN(c1ccc(C(=O)N3CCC(CN4CCC5(CC4)COc4c5ccc5c4CN([C@H]4CCC(=O)NC4=O)C5=O)CC3)cc1)CC2 [ARD-2]
- Dmax (androgen receptor (AR)): > 75%

SMILES: N#Cc1ccc(O[C@H]2CC[C@H](NC(=O)c3ccc(N4CCC(CN5CCC6(CC5)COc5c6ccc6c5CN([C@H]5CCC(=O)NC5=O)C6=O)CC4)nn3)CC2)cc1Cl [ARD-3, N-((1r,4r)-4-(3-chloro-4-cyanophenoxy)cyclohexyl)-6-(4-((7-((S)-2,6-dioxopiperidin-3-yl)-6-oxo-7,8-dihydro-2H,6H-spiro[furo[2,3-e]isoindole-3,4′-piperidin]-1′-yl)methyl)piperidin-1-yl)pyridazine-3-carboxamide]
- Dmax (androgen receptor (AR)): > 75%

SMILES: CN(c1ccc(C#N)c(Cl)c1)[C@H]1CC[C@H](NC(=O)c2ccc(N3CCC(CN4CCC5(CC4)COc4c5ccc5c4CN([C@H]4CCC(=O)NC4=O)C5=O)CC3)nn2)CC1 [ARD-4, N-((1r,4r)-4-((3-chloro-4-cyanophenyl)(methyl)amino)cyclohexyl)-6-(4-((7-((S)-2,6-dioxopiperidin-3-yl)-6-oxo-7,8-dihydro-2H,6H-spiro[furo[2,3-e]isoindole-3,4′-piperidin]-1′-yl)methyl)piperidin-1-yl)pyridazine-3-carboxamide]
- Dmax (androgen receptor (AR)): > 75%

SMILES: COc1cc(-c2cn(C)c(=O)c3cnc(N4CCC4)cc23)cc(OC)c1C(=O)N1CCC2(CCC(CN3CCC4(CC3)COc3c4ccc4c3CN(C3CCC(=O)NC3=O)C4=O)CC2)CC1 (stereo not shown) [BRD-1, 3-(1′-((3-(4-(6-(azetidin-1-yl)-2-methyl-1-oxo-1,2-dihydro-2,7-naphthyridin-4-yl)-2,6-dimethoxybenzoyl)-3-azaspiro[5.5]undecan-9-yl)methyl)-6-oxo-6,8-dihydro-2H,7H-spiro[furo[2,3-e]isoindole-3,4′-piperidin]-7-yl)piperidine-2,6-dione]
- Dmax (BRD9): > 90%
- DC50 (BRD9): < 0.01 µM

SMILES: COc1cc(-c2cn(C)c(=O)c(C)c2C)cc(OC)c1C(=O)N1CCC2(CCC(CN3CCC4(CC3)COc3c4ccc4c3C(=O)N(C3CCC(=O)NC3=O)C4=O)CC2)CC1 (stereo not shown) [BRD-2, 1′-((3-(2,6-dimethoxy-4-(1,4,5-trimethyl-6-oxo-1,6-dihydropyridin-3-yl)benzoyl)-3-azaspiro[5.5]undecan-9-yl)methyl)-7-(2,6-dioxopiperidin-3-yl)-7-hydro-2H,6H-spiro[furo[2,3-e]isoindole-3,4′-piperidine]-6,8-dione]
- Dmax (BRD9): > 90%
- DC50 (BRD9): 0.01 to 0.1 µM

SMILES: O=C1CCC(N2Cc3c(ccc4c3OCC43CCNCC3)C2=O)C(=O)N1 (stereo not shown) [Compound B1, 3-(6-oxo-6,8-dihydro-2H,7H-spiro[furo[2,3-e]isoindole-3,4′-piperidin]-7-yl)piperidine-2,6-dione]
- IC50 [1]: 1 µM

SMILES: CC(C)S(=O)(=O)c1ccc(CNC(=O)[C@H](CCC(N)=O)NC(=O)[C@@H]2CC[C@@H]3CCN(C(=O)CCCCN4CCC5(CC4)COc4c5ccc5c4CN([C@H]4CCC(=O)NC4=O)C5=O)C[C@H](NC(=O)c4cc5cc(C(=O)P(=O)(O)O)ccc5[nH]4)C(=O)N32)cc1 [STD 86, (2-(((5S,8S,10aR)-8-(((S)-5-amino-1-((4-(isopropylsulfonyl)benzyl)amino)-1,5-dioxopentan-2-yl)carbamoyl)-3-(5-(7-((S)-2,6-dioxopiperidin-3-yl)-6-oxo-7,8-dihydro-2H,6H-spiro[furo[2,3-e]isoindole-3,4′-piperidin]-1′-yl)pentanoyl)-6-oxodecahydropyrrolo[1,2-a] [1,5]diazocin-5-yl)carbamoyl)-1H-indole-5-carbonyl)phosphonic acid]
- DC50 (STAT3): 0.1 to 1 µM
- Dmax (STAT3): ≥ 80%
- IC50 (MOLM-16): 0.1 to 1 µM
- IC50 (SU-DHL-1): 1 to 10 µM
